What was measured:
[1] = target: T1, Klenow large fragment (Escherichia coli, UniProt P00582); assay: primer extension, denaturing PAGE and mass spectrometry; format: biochemical; conditions: templates T1 and T2, primer P3; 37°C
T1 construct: gene polA; large (Klenow) fragment of DNA polymerase I, without the N-terminal 5'-3' exonuclease domain; commercial (New England Biolabs)

[2] = target: T2, Therminator II (Thermococcus sp. 9oN-7, UniProt Q56366, D141A/E143A/Y409V/A485L, form not given); assay: as above; format: biochemical; conditions: templates T1 and T2, primer P3; 72°C
T2 construct: gene pol; commercial engineered variant of 9°N DNA polymerase (New England Biolabs)
T2 sequence (Q56366 whole entry D141A/E143A/Y409V/A485L, form open): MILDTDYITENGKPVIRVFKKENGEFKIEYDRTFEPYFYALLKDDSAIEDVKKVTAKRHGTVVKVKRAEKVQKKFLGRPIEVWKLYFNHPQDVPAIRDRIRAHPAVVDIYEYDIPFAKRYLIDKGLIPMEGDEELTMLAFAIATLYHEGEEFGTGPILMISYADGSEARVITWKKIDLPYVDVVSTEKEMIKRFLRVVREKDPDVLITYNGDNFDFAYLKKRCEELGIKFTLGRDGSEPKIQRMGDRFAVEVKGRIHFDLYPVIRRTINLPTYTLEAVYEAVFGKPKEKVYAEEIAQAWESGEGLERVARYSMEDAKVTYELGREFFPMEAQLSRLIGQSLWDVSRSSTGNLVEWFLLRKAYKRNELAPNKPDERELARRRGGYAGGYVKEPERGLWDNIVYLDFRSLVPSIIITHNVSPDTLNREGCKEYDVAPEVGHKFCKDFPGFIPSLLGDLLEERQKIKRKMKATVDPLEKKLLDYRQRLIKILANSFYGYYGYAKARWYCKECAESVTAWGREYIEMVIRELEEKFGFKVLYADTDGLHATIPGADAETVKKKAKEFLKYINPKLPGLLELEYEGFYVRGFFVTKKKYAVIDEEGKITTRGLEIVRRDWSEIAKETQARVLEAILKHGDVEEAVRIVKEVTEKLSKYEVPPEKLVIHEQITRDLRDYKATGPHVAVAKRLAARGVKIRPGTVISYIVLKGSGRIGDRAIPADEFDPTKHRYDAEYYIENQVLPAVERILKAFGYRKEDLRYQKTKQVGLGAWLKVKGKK

T1 sequence (P00582 324-928 limits assumed): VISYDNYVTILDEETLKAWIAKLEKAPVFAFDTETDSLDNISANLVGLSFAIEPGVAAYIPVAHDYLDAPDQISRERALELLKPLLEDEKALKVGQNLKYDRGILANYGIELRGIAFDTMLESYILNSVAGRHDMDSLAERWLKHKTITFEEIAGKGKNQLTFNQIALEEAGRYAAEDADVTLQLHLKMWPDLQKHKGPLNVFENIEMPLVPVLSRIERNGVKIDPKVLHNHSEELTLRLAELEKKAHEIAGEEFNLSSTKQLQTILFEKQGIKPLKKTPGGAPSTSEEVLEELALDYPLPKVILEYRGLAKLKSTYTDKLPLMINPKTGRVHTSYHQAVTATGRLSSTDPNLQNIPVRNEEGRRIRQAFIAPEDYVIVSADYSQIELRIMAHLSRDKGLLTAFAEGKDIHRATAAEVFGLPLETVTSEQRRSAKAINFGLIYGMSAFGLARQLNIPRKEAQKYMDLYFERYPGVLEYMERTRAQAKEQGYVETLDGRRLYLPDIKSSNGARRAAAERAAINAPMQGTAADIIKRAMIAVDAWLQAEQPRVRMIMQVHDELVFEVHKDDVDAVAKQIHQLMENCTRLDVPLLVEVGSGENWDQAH

[N-]=[N+]=NCCCCCC(=O)NCC#Cc1cn([C@H]2C[C@H](O)[C@@H](COP(=O)(O)OP(=O)(O)OP(=O)(O)O)O2)c(=O)[nH]c1=O [AHP dUTP]
primer extension, denaturing PAGE and mass spectrometry [1]: all four polymerases successfully incorporate AHP dUTP in the presence of templates T1 and T2
primer extension, denaturing PAGE and mass spectrometry [2]: all four polymerases successfully incorporate AHP dUTP in the presence of templates T1 and T2

Source: article PMC4856977, “Efficient enzymatic synthesis and dual-colour fluorescent labelling of DNA probes using long chain azido-dUTP and BCN dyes” (Nucleic Acids Research, 2016)
